According to patent publication US12522597B2, “Methods and compositions for modulating splicing” (Skyhawk Therapeutics, Inc., priority 2019, dated 2026):

Assays:
[1] = system: MDR1; test: MDCK-MDR1 permeability assay (BBB penetration potential); format: in vitro ADME; details: dog; for efflux ratio at 120 min, 5 μM: MDCK-MDR1, pH 7.4, MDCK-MDR1: Efflux; for Papp A→B at 120 min, 5 μM: MDCK-MDR1, pH 7.4, MDCK-MDR1: Papp A-B; for Papp B→A at 120 min, 5 μM: MDCK-MDR1, pH 7.4, MDCK-MDR1: Papp B-A
Protocol: (§1) Each determination is performed in duplicate. […] Analytical conditions are outlined below.

[2] = system: MDR1-MDCK cell monolayers; test: as above; format: in vitro ADME; details: dog, MDCK-MDR1, 120 min, 5 μM, pH 7.4
Protocol: as §1

[3] = system: mHTT protein; test: mHTT protein assay (2B7-MW1, Mesoscale Discovery); format: cell-based, human; details: GM04724 (CAG 70/20) Huntington's disease patient lymphoblast cells, 48 hours, 2B7-MW1 MSD; read-out: HTT Potency - Protein EC50 mHTT (average)
Protocol: Compounds are tested on GM04724 (CAG 70/20) Huntington's disease patient lymphoblast cells at doses ranging from 10 μM to 0.6 nM. 4,500 cells/well are seeded in 384 well plates. One plate replica is carried out for parallel viability testing by CellTiter Glo (CTG). Compounds are incubated for 48 hours, mHTT protein levels are assessed by the 2B7-MW1 assay via Mesoscale Discovery (MSD) as previously reported (Macdonald et al., 2014). The antibody pair is comprised of previously characterized monoclonals (2B7 and MW1) interrogating two regions for HTT conformation and biological properties: the N17 domain and the polyQ domain (Baldo et al., 2012; Ko et., 2001). 2B7-MW1 is dependent on subject/animal specific levels of HTT at the time of treatment. 2B7-MW1 is dependent on polyQ expansion (e.g., the higher the expansion the higher the signal) and on mHTT size (e.g., a similar polyQ will give higher signal with smaller HTT size). The viability readout is carried out by CTG according to the manufacturer's instructions.

Row | SMILES | efflux ratio at 120 min, 5 μM [1] | Papp A→B at 120 min, 5 μM [1] [×10⁻⁶ cm/s] | Papp B→A at 120 min, 5 μM [1] [×10⁻⁶ cm/s] | MDCK-MDR1: % Recov A-B [2] [%] | MDCK-MDR1: % Recov B-A [2] [%] | EC50 [3] [µM]
1 | Cc1cnc(-c2ccc(-c3ccc(O[C@@H]4C[C@H]5CCC[C@H](N5)[C@@H]4F)nn3)c(O)c2)cn1 (single isomer, unassigned) [78-ENT1] | 3 | 7.17 | 24.5 | 65 | 78 | 0.101 to 0.5
2 | Cc1cnc(-c2ccc(-c3ccc(O[C@H]4C[C@@H]5CCC[C@@H](N5)[C@H]4F)nn3)c(O)c2)cn1 (single isomer, unassigned) [78-ENT2] | 4 | 7.09 | 30 | 56 | 83 | 0.101 to 0.5
3 | Oc1cc2cnccc2cc1-c1ccc(O[C@@H]2C[C@H]3CCC[C@H](N3)[C@@H]2F)nn1 (single isomer, unassigned) [80-ENT1] | 4 | 7.47 | 31.4 | 70 | 78 | 0.101 to 0.5
4 | Oc1cc2cnccc2cc1-c1ccc(O[C@H]2C[C@@H]3CCC[C@@H](N3)[C@H]2F)nn1 (single isomer, unassigned) [80-ENT2] | 3 | 9.2 | 32.1 | 72 | 84 | 0.501 to 10
5 | Oc1cc2ccncc2cc1-c1ccc(O[C@@H]2C[C@H]3CCC[C@H](N3)[C@@H]2F)nn1 (single isomer, unassigned) [81-ENT1] | 3 | 7.34 | 22.8 | 69 | 77 | 0.501 to 10
6 | Oc1cc2ccncc2cc1-c1ccc(O[C@H]2C[C@@H]3CCC[C@@H](N3)[C@H]2F)nn1 (single isomer, unassigned) [81-ENT2] | 3 | 9.23 | 26.4 | 69 | 81 | 0.501 to 10
7 | Oc1cc(-c2ccc3nccn3c2)ccc1-c1ccc(O[C@@H]2C[C@H]3CCC[C@H](N3)[C@@H]2F)nn1 (single isomer, unassigned) [84-ENT1] | 11 | 1.56 | 17 | 44 | 72 | 0.016 to 0.05
8 | Oc1cc(-c2ccc3nccn3c2)ccc1-c1ccc(O[C@H]2C[C@@H]3CCC[C@@H](N3)[C@H]2F)nn1 (single isomer, unassigned) [84-ENT2] | 14 | 1.63 | 22.8 | 43 | 73 | 0.016 to 0.05
9 | Oc1cc(-c2ccc3cncn3c2)ccc1-c1ccc(O[C@@H]2C[C@H]3CCC[C@H](N3)[C@@H]2F)nn1 (single isomer, unassigned) [85-ENT1] | 6 | 2.12 | 12.1 | 33 | 66 | 0.101 to 0.5
10 | Oc1cc(-c2ccc3cncn3c2)ccc1-c1ccc(O[C@H]2C[C@@H]3CCC[C@@H](N3)[C@H]2F)nn1 (single isomer, unassigned) [85-ENT2] | 7 | 2.26 | 15.3 | 33 | 61 | 0.101 to 0.5
11 | Oc1cc(-c2ccn3cnnc3c2)ccc1-c1ccc(O[C@@H]2C[C@H]3CCC[C@H](N3)[C@@H]2F)nn1 (single isomer, unassigned) [86-ENT1] | 46 | 0.54 | 24.7 | 89 | 93 | 0.101 to 0.5
12 | Oc1cc(-c2ccn3cnnc3c2)ccc1-c1ccc(O[C@H]2C[C@@H]3CCC[C@@H](N3)[C@H]2F)nn1 (single isomer, unassigned) [86-ENT2] | 48 | 0.42 | 20.3 | 75 | 74 | 0.101 to 0.5
13 | Oc1cc(-c2ccnnc2)ccc1-c1ccc(O[C@@H]2C[C@H]3CCC[C@H](N3)[C@@H]2F)nn1 (single isomer, unassigned) [87-ENT1] | 20 | 2.75 | 55.8 | 92 | 100 | 0.101 to 0.5
14 | Oc1cc(-c2ccnnc2)ccc1-c1ccc(O[C@H]2C[C@@H]3CCC[C@@H](N3)[C@H]2F)nn1 (single isomer, unassigned) [87-ENT2] | 14 | 3.9 | 56.1 | 105 | 108 | 0.101 to 0.5
15 | Cc1cc(-c2ccc(-c3ccc(O[C@H]4C[C@@H]5CCC[C@@H](N5)[C@H]4F)nn3)c(O)c2)ccn1 (single isomer, unassigned) [88-ENT2] | 4 | 5.13 | 21.5 | 51 | 71 | 0.016 to 0.05
16 | Cc1cncc(-c2ccc(-c3ccc(O[C@@H]4C[C@H]5CCC[C@H](N5)[C@@H]4F)nn3)c(O)c2)c1 (single isomer, unassigned) [89-ENT1] | 6 | 6.05 | 33.8 | 68 | 76 | 0.501 to 10
17 | Cc1cncc(-c2ccc(-c3ccc(O[C@H]4C[C@@H]5CCC[C@@H](N5)[C@H]4F)nn3)c(O)c2)c1 (single isomer, unassigned) [89-ENT2] | 13 | 2.61 | 34 | 55 | 70 | 0.501 to 10
18 | Cc1cc(-c2ccc(-c3ccc(O[C@@H]4C[C@H]5CCC[C@H](N5)[C@@H]4F)nn3)c(O)c2)cnn1 (single isomer, unassigned) [90-ENT1] | 33 | 1.82 | 60.5 | 103 | 99 | 0.101 to 0.5
19 | Cc1cc(-c2ccc(-c3ccc(O[C@H]4C[C@@H]5CCC[C@@H](N5)[C@H]4F)nn3)c(O)c2)cnn1 (single isomer, unassigned) [90-ENT2] | 34 | 1.92 | 64.6 | 101 | 97 | 0.101 to 0.5
20 | Oc1cc(-c2cnn3ccccc23)ccc1-c1ccc(O[C@@H]2C[C@H]3CCC[C@H](N3)[C@@H]2F)nn1 (single isomer, unassigned) [91-ENT1] | 3 | 4.52 | 15.5 | 30 | 57 | 0.101 to 0.5
21 | Oc1cc(-c2cnn3ccccc23)ccc1-c1ccc(O[C@H]2C[C@@H]3CCC[C@@H](N3)[C@H]2F)nn1 (single isomer, unassigned) [91-ENT2] | 2 | 4.4 | 10.5 | 30 | 48 | 0.501 to 10
22 | Cc1nc(-c2ccc(-c3ccc(O[C@@H]4C[C@H]5CCC[C@H](N5)[C@@H]4F)nn3)c(O)c2)co1 (single isomer, unassigned) [92-ENT1] | 5 | 5.99 | 30.9 | 65 | 74 | 0.101 to 0.5
23 | Cc1nc(-c2ccc(-c3ccc(O[C@H]4C[C@@H]5CCC[C@@H](N5)[C@H]4F)nn3)c(O)c2)co1 (single isomer, unassigned) [92-ENT2] | 9 | 6.04 | 54.6 | 72 | 89 | 0.101 to 0.5
24 | Cc1ncc(-c2ccc(-c3ccc(O[C@H]4C[C@@H]5CCC[C@@H](N5)[C@H]4F)nn3)c(O)c2)o1 (single isomer, unassigned) [93-ENT2] | 4 | 9.43 | 41.5 | 67 | 88 | 0.016 to 0.05
25 | Cc1nnc(-c2ccc(-c3ccc(O[C@@H]4C[C@H]5CCC[C@H](N5)[C@@H]4F)nn3)c(O)c2)o1 (single isomer, unassigned) [94-ENT1] | 7 | 6.2 | 41.2 | 104 | 70 | 0.101 to 0.5
